These results are taken from publication PMC7180939, “Antiplasmodial Activity of p-Substituted Benzyl Thiazinoquinone Derivatives and Their Potential against Parasitic Infections” (Molecules, 2020).

The test system of data set [1] is chloroquine-resistant (W2) strain of P. falciparum. As to the kind of experiment: P. falciparum drug susceptibility assay (pLDH), W2 strain. The class given is cell-based. As to conditions: Plasmodium falciparum, read-out: W2 IC50. How it is done:
(§1) All reagents were from Sigma Aldrich, Milan, Italy unless indicated otherwise. As reported in the literature, the chloroquine-sensitive (D10) and chloroquine-resistant (W2) strains of P. falciparum were maintained in vitro at 5% hematocrit medium (constituted of human type Apositive red blood cells) in RPMI 1640 (EuroClone, Celbio, Italy) with the addition of 1% AlbuMax (Invitrogen, Milan, Italy), 0.01% hypoxanthine, […], and […]. The resulting cultures were incubated at 37 °C in a mixture of standard gas with the following composition: 1% O2, 5% CO2, and 94% N2. […] Drugs were placed in 96 well flat-bottom microplates and a series of dilutions performed. Asynchronous cultures (parasitemia of 1–1.5%; 1% final hematocrit) were aliquoted into the plates and incubated for 72 h at 37 °C. The cultures were washed with PBS before the chemosensitivity assay while the parasite growth was determined spectrophotometrically (OD650) by measuring the parasite lactate dehydrogenase (pLDH) activity. These measurements were made according to the modified version of Makler’s method both in control and drug-tested cultures. Antiplasmodial activity is expressed as 50% inhibitory concentrations (IC50), which means the dose of compounds necessary to inhibit cell growth by 50%. Each IC50 value is the mean standard deviation of at least three separate experiments performed in duplicate.

Data set [2] has as its system chloroquine-sensitive (D10) strain of P. falciparum. As to the kind of experiment: P. falciparum drug susceptibility assay (pLDH), D10 strain. The class given is cell-based. As to conditions: Plasmodium falciparum, read-out: D10 IC50. How it is done:
as §1

The test system of data set [3] is human microvascular endothelial cells (HMEC-1). As to the kind of experiment: Cytotoxicity assay on HMEC-1 cell line. The class given is cell-based. As to conditions: cytotoxicity on HMEC-1 cell line.
The subject of another data set is P. falciparum. The arrangement: method as in PMID 30640072. As to conditions: D10 and W2 strains, earlier work; cited from earlier work.
Data set [4] deals with embryonic murine fibroblasts (NIH-3T3 cell line). Details: method as in PMID 31718145. As to conditions: cytotoxicity on NIH-3T3 cell line; cited from earlier work.
A further data set relates to S. mansoni. The arrangement: method as in PMID 31718145. As to conditions: schistosomula, adult worm pairs, juvenile parasites, eggs; cited from earlier work.
Details of data set [5]: method as in PMID 31718145. As to conditions: cited from earlier work.
The mark [6] stands for this setting: CQ-resistant W2 strain, pLDH assay, 72 h, mean ± SD of three experiments in duplicate.
Where [7] appears, read: CQ-sensitive D10 strain, pLDH assay, 72 h, mean ± SD of three experiments in duplicate.

The structures appear in SMILES notation. Like-named read-outs stand apart in the source and are kept apart here.

Regarding `CCN(CC)CCCC(C)Nc1ccnc2cc(Cl)ccc12` (stereo not shown) [CQ, chloroquine, reference compound], the IC50 (commonly the concentration at which inhibition is half-maximal) in data set [1] (W2, 72 h) is 0.54 µM; in data set [2] (D10, 72 h) it was 0.04 µM.
Molecule `CC[C@@]1(O)C(=O)OCc2c1cc1n(c2=O)Cc2cc3ccccc3nc2-1` [Camptothecin, reference compound] displayed an IC50 in data set [3] of 0.018 µM.
Consider `COC1=C(Cc2ccccc2)C(=O)C2=C(NCCS2(=O)=O)C1=O` [Compound 22], for which the IC50 in data set [1] (setting [6]) was 0.7 ± 0.22 µM; in data set [3], 17.6 ± 1.4 µM; in data set [2] (setting [7]) it was 0.6 ± 0.21 µM; in data set [4], 88.6 ± 7.7 µM. In the data set with P. falciparum, the “antiplasmodial activity (in words)” value was “active in the range of low-micromolar concentrations”.
As for `COC1=C(Cc2ccccc2)C(=O)C=CC1=O` [Compound 23], in the data set with S. mansoni, the “activity against S. mansoni (in words)” value was “inactive”. Besides, the “antiplasmodial activity (in words)” value with P. falciparum is recorded as “absence of activity”.
`COC1=C(Cc2ccc(Cl)cc2)C(=O)C2=C(NCCS2(=O)=O)C1=O` [Compound 24]: the values for the half-maximal inhibitory concentration (IC50) in data set [1] (setting [6]), in data set [3] and in data set [2] (setting [7]) were 1.9 ± 1.05 µM, 8.51 ± 0.76 µM and 1.63 ± 0.35 µM, respectively.
Turning to `COC1=C(Cc2ccc(C(F)(F)F)cc2)C(=O)C2=C(NCCS2(=O)=O)C1=O` [Compound 25], the IC50 worked out at 5.02 ± 1.81 µM in data set [1] (setting [6]), 20.4 ± 1.6 µM in data set [3] and 5.06 ± 1.68 µM in data set [2] (setting [7]).
Consider `COC1=C(Cc2ccc(OC)cc2)C(=O)C2=C(NCCS2(=O)=O)C1=O` [Compound 26], for which the IC50 is 1.22 ± 0.24 µM in data set [1] (setting [6]), 17.9 ± 1.1 µM in data set [3], 1.21 ± 0.2 µM in data set [2] (setting [7]) and above 100 µM in data set [4]. Further, the cLogD in data set [5] is 0.33.
Consider `COC1=C(Cc2ccc(OC(F)(F)F)cc2)C(=O)C2=C(NCCS2(=O)=O)C1=O` [Compound 27], for which the IC50 in data set [1] (setting [6]) was found to be 0.81 ± 0.19 µM; in data set [3], 3.59 ± 0.72 µM; in data set [2] (setting [7]) it was 1.12 ± 0.4 µM. The cLogD in data set [5] is given as 1.37.
